In publication PMC11599901, “Enhancing the solubility and antibacterial activity of novel molecular salts of enrofloxacin drug with isomeric pyridinedicarboxylic acids” (Scientific Reports, 2024):
≈ marks a conversion by molar mass, not a printed value. Read-outs that look alike come from different tables or passages of the source.

Key:
[1] = Water solubility by the gravimetric method; type: physicochemical; conditions: 25 °C
Description: Temperature was maintained using a calibrated UltraUB 20 F with a DLK 25 circulating cooler (Lauda, Germany). A specific amount of the substance under investigation was carefully weighed using a precise analytical balance (Sartorius RC 210D). The mixture of salts and water was thoroughly mixed to ensure complete dissolution of the substance under investigation and left for 2 h to achieve equilibrium between the solution and the precipitate. Then, the solution was filtered, and the remaining precipitate was dried to a constant mass to remove the solvent. The difference between the initial mass of the substance m0 and the mass of the undissolved substance m1 allowed for the determination of the mass of the substance dissolved in the given mass of solvent.
Each measurement was taken in triplicate.

[2] = system: Escherichia coli ATCC 25922; test: Broth microdilution antibacterial activity (MIC/MBC), CLSI M07; type: cell-based; conditions: 24 h at 37 °C; for MBC (minimal bactericidal concentration) / MIC (minimal inhibitory concentration): Mueller-Hinton medium
Description: (§1) The antibacterial activity of the enrofloxacin salts was determined against two Gram-positive strains (Staphylococcus aureus ATCC 6358, Streptococcus pyogenes ATCC 19615) and two Gram-negative bacteria (Escherichia coli ATCC 25922, Pseudomonas aeruginosa ATCC 15442). The determination was performed in accordance with Clinical and Laboratory Standards Institute (CLSI) standard […] for antimicrobial susceptibility testing of aerobic bacteria. The assessment was performed using the broth microdilution method with Mueller-Hinton medium. The tested samples were accompanied by biotic controls, i.e. without the addition of newly synthesized compounds, and abiotic controls, i.e. without the addition of microorganisms. All probes were incubated for 24 h at 37 °C. Microbial growth was measured using a microplate reader (Multiskan FC Microplate Photometer, ThermoFisher Scientific, Pudong, Shanghai, China) at λ = 630 nm. The follow were determined: the minimal inhibitory concentration (MIC), defined as the lowest concentration of a compound that prevents visible growth of bacteria, and minimal bactericidal concentration (MBC), defined as the lowest concentration of a substance that completely limits the viability of microorganisms.

[3] = system: Pseudomonas aeruginosa ATCC 15442; test: as above; type: cell-based; conditions: 24 h at 37 °C; for MBC (minimal bactericidal concentration) / MIC (minimal inhibitory concentration): Mueller-Hinton medium
Description: as §1

[4] = system: Staphylococcus aureus ATCC 6358; test: as above; type: cell-based; conditions: 24 h at 37 °C; for MBC (minimal bactericidal concentration) / MIC (minimal inhibitory concentration): Mueller-Hinton medium
Description: as §1

[5] = system: Streptococcus pyogenes ATCC 19615; test: as above; type: cell-based; conditions: 24 h at 37 °C; for MBC (minimal bactericidal concentration) / MIC (minimal inhibitory concentration): Mueller-Hinton medium
Description: as §1

[6] = cited from earlier work

SMILES	MIC (minimal inhibitory concentration) [2] [µg/mL]	MIC (minimal inhibitory concentration) [3] [µg/mL]	MIC (minimal inhibitory concentration) [4] [µg/mL]	MIC (minimal inhibitory concentration) [5] [µg/mL]	MBC (minimal bactericidal concentration) [2] [µg/mL]	MBC (minimal bactericidal concentration) [3] [µg/mL]	MBC (minimal bactericidal concentration) [4] [µg/mL]	MBC (minimal bactericidal concentration) [5] [µg/mL]	further results
O=C(O)c1ccc(C(=O)O)nc1 [Py2,5DCA, pyridine-2,5-dicarboxylic acid]	–	–	–	–	–	–	–	–	solubility in water [1]: 1237 µg/mL (≈ 7400 µM)
CCN1CCN(c2cc3c(cc2F)c(=O)c(C(=O)O)cn3C2CC2)CC1.O=C(O)c1cccnc1C(=O)O [EFX·Py2,3DCA]	0.0078	1	0.25	0.125	0.031	2	0.25	0.25	–
O=C(O)CC(O)C(=O)O (stereo not drawn) [malic acid]	–	–	–	–	–	–	–	–	solubility in water ([6]; ref 41): 16130 µg/mL (≈ 120000 µM)
CCN1CCN(c2cc3c(cc2F)c(=O)c(C(=O)O)cn3C2CC2)CC1 [EFX, 1-cyclopropyl-7-(4-ethyl-1-piperazinyl)-6-fluoro-1,4-dihydro-4-oxo-3-quinolinecarboxylic acid, reference compound]	–	–	–	–	–	–	–	–	MBC ([2]; ATCC25922, Mueller-Hinton medium, read-out: MBC (minimal bactericidal concentration)): 0.0078 µg/mL (≈ 0.0217 µM); MIC ([2]; ATCC25922, Mueller-Hinton medium, read-out: MIC (minimal inhibitory concentration)): 0.0078 µg/mL (≈ 0.0217 µM); MBC ([3]; ATCC15442, Mueller-Hinton medium, read-out: MBC (minimal bactericidal concentration)): 1 µg/mL (≈ 2.78 µM); MIC ([3]; ATCC15442, Mueller-Hinton medium, read-out: MIC (minimal inhibitory concentration)): 0.5 µg/mL (≈ 1.39 µM); MBC ([4]; ATCC6358, Mueller-Hinton medium, read-out: MBC (minimal bactericidal concentration)): 0.25 µg/mL (≈ 0.696 µM); MIC ([4]; ATCC6358, Mueller-Hinton medium, read-out: MIC (minimal inhibitory concentration)): 0.0625 µg/mL (≈ 0.174 µM); MBC ([5]; ATCC19615, Mueller-Hinton medium, read-out: MBC (minimal bactericidal concentration)): 0.125 µg/mL (≈ 0.348 µM); MIC ([5]; ATCC19615, Mueller-Hinton medium, read-out: MIC (minimal inhibitory concentration)): 0.0625 µg/mL (≈ 0.174 µM); solubility at 2 h ([1]; thermodynamic from solid): 176 µg/mL (≈ 490 µM); solubility in water ([6]; ref 34): 610 µg/mL (≈ 1700 µM); solubility in water ([6]; ref 41): 140 µg/mL (≈ 390 µM)
CCN1CCN(c2cc3c(cc2F)c(=O)c(C(=O)O)cn3C2CC2)CC1.O=C(O)c1ccnc(C(=O)O)c1 [EFX·Py2,4DCA]	0.0078	1	0.25	0.125	0.031	2	0.25	0.25	–

Further lines, with some results ahead:

MIC (minimal inhibitory concentration) [2] [µg/mL]	MIC (minimal inhibitory concentration) [3] [µg/mL]	MIC (minimal inhibitory concentration) [4] [µg/mL]	MIC (minimal inhibitory concentration) [5] [µg/mL]	SMILES	MBC (minimal bactericidal concentration) [2] [µg/mL]	MBC (minimal bactericidal concentration) [3] [µg/mL]	MBC (minimal bactericidal concentration) [4] [µg/mL]	MBC (minimal bactericidal concentration) [5] [µg/mL]	further results
0.0078	1	0.25	0.125	CCN1CCN(c2cc3c(cc2F)c(=O)c(C(=O)O)cn3C2CC2)CC1.O.O=C(O)c1ccc(C(=O)O)nc1 [EFX·Py2,5DCA·H2O]	0.031	2	0.25	0.25	–
0.0078	1	0.25	0.125	CCN1CCN(c2cc3c(cc2F)c(=O)c(C(=O)O)cn3C2CC2)CC1.O.O=C(O)c1cccc(C(=O)O)n1 [EFX·Py2,6DCA·H2O]	0.015	2	0.25	0.25	–
